Experiments:
MDA-MB-231 Cells [1] = assay: MTS assay, growth arrest by retinoids +/-Rhodiola; type: cell-based, human; settings: for chemosensitivity (MTS assay): retinoid with Rhodiola, data not shown
Experimental: Rhodiola crenulata extracts were administered to MDA-MB-231 cells in the presence or absence of either 1 μM or 10 μM all trans retinoic acid (ATRA), and cell viability/cytotoxicity was monitored using the MTS assay, as described above, and monitored for absorbance at 490 nm as indicative of chemosensitivity/resistance to the ATRA administered.

MDA-MB-231 Cells [2] = assay: Death time course with Tamoxifen, Rhodiola, or both; type: cell-based, human
Excerpt: FIG. 8 is a graph showing a Death Time Course of MDA-MB-231 Cells treated with Tamoxifen, Rhodiola, or Tamoxifen plus Rhodiola.
FIG. 8 is similar to FIG. 7, but this experiment involved a time course of MDA-MB-231 Cells treated with Tamoxifen or Rhodiola alone, or Tamoxifen and Rhodiola together.

[3] = target: T1, telomerase activity in MDA-MB-231 breast cancer cells (Homo sapiens, UniProt O14746); assay: Telomerase activity (qPCR); type: cell-based; settings: Rhodiola crenulata 100 μg/mL, tamoxifen 10 μM
T1 construct: telomerase activity in human MDA-MB-231 breast cancer cells; endogenous in cells; host or cells: MDA-MB-231
T1 sequence (O14746 whole entry): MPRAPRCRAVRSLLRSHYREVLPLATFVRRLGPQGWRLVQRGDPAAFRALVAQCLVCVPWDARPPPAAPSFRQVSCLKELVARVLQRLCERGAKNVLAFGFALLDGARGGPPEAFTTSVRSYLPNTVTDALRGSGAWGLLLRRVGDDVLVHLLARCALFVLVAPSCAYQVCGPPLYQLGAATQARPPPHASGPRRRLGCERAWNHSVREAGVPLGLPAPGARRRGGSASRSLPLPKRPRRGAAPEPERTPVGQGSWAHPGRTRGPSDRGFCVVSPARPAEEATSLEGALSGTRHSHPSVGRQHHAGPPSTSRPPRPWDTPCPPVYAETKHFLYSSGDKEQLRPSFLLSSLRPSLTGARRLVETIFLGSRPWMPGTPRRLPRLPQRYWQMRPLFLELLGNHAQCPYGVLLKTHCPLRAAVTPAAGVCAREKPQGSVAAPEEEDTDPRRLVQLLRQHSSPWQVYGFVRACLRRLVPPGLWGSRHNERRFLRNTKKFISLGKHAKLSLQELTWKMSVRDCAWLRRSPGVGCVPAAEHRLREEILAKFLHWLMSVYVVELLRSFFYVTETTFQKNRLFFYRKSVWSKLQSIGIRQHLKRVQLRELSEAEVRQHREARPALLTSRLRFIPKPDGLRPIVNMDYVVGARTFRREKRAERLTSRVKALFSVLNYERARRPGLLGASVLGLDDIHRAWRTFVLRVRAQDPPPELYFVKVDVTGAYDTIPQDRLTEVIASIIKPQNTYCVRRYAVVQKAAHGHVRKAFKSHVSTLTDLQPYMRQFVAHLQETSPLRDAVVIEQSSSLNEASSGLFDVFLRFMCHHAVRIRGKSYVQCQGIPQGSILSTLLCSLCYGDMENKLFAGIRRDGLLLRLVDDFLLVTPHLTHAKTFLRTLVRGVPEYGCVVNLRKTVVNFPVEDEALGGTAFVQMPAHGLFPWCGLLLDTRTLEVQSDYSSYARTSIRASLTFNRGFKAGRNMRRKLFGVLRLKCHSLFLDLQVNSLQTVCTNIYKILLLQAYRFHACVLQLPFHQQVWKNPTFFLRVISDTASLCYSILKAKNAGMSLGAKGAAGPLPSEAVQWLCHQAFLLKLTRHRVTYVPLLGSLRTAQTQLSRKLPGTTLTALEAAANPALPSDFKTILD
Experimental: FIGS. 16 and 17 show the effect of Rhodiola crenulata (100 μg/mL) and tamoxifen (10 μM) on telomerase activity in human MDA-MB-231 breast cancer cells at 24 hr and 72 hr, respectively.
The breast cancer cell lines MDA-MB-231, V14, 76N tert (an immortalized epithelial breast cancer cell line), and 76N p53 239 (immortalized by presence of a dominant negative p53 gene) were treated as indicated above for 24 hours at 100 μg/mL Rhodiola crenulata.

`CC1=C(/C=C/C(C)=C\C=C\C(C)=C\C(=O)O)C(C)(C)CCC1` [9-cis retinoic acid] was tested, and the “chemosensitivity (MTS assay)” value (MDA-MB-231 Cells [1]) was “Comparable effects”.

In the case of `CC1=C(/C=C/C(C)=C/C=C/C(C)=C/C(=O)O)C(C)(C)CCC1` [ATRA, all trans retinoic acid], the “chemosensitivity (MTS assay, absorbance at 490 nm)” value (MDA-MB-231 Cells [1]; 1 μM or 10 μM ATRA, absence of Rhodiola crenulata) was “little difference in chemosensitivity”.

With `CC1=C(/C=C/C(C)=C/C=C/C(C)=C/C(=O)Nc2ccc(O)cc2)C(C)(C)CCC1` [HPR, N-(4-hydroxyphenyl) retinamide] the “chemosensitivity (MTS assay)” value (MDA-MB-231 Cells [1]) was “Comparable effects”.

`CC/C(=C(\c1ccccc1)c1ccc(OCCN(C)C)cc1)c1ccccc1` [Tamoxifen, tamoxifen] was tested, and the “percentage of cell death” value (MDA-MB-231 Cells [2]; 24 hours) was “increased the percentage of cell death”, the “percentage of cell death” value (MDA-MB-231 Cells [2]; 48 hours) was “increased the percentage of cell death” and the telomerase activity ([3]; 24 hr) was “inhibited telomerase activity”. The telomerase activity ([3]; 72 hr) was “telomerase activity is starting to return”.
